Results published in the NIST ThermoML archive (doi:10.1016/j.jct.2011.01.016).

Assay: xn = mol fraction of the nth substance listed
Conditions: 100 kPa, Liquid; for viscosity: Concentric cylinders viscometry; for mass density: Vibrating tube method

CC(CC(C)(C)C)CP(=O)([O-])CC(C)CC(C)(C)C.CCCCCCCCCCCCCC[P+](CCCCCC)(CCCCCC)CCCCCC + O
x2 = 0.876
Conditions	mass density [kg/m3]	viscosity [mPa·s]
298.15 K	907.3	173.82
303.15 K	903.9	128.58
308.15 K	900.5	97.03
313.15 K	897.2	74.52
318.15 K	893.8	58.16
323.15 K	890.4	46.06
328.15 K	887.1	37
333.15 K	883.6	30.09
338.15 K	880.2	24.76
343.15 K	876.8	20.59
348.15 K	873.4	17.3
353.15 K	869.9	14.66
358.15 K	866.5	12.53
363.15 K	863.1	10.78

CCCCCCCCCCCCCC[P+](CCCCCC)(CCCCCC)CCCCCC.[Cl-] [trihexyl(tetradecyl)phosphonium chloride] + O
x2 = 0.818
Conditions	mass density [kg/m3]	viscosity [mPa·s]
298.15 K	901.6	134.72
303.15 K	898.3	103.12
308.15 K	895	80.2
313.15 K	891.7	63.3
318.15 K	888.4	50.65
323.15 K	885.1	41.05
328.15 K	881.8	33.64
333.15 K	878.5	27.88
338.15 K	875.2	23.33
343.15 K	871.9	19.71
348.15 K	868.6	16.79
353.15 K	865.3	14.4
358.15 K	862	12.44
363.15 K	858.6	10.81

CCCCCCCCCCCCCC[P+](CCCCCC)(CCCCCC)CCCCCC.[Br-] [tetradecyltrihexylphosphonium bromide] + O
x2 = 0.68
Conditions	mass density [kg/m3]	viscosity [mPa·s]
298.15 K	957	238.84
303.15 K	953.6	180.54
308.15 K	950.3	138.77
313.15 K	946.9	108.27
318.15 K	943.6	85.71
323.15 K	940.2	68.71
328.15 K	936.9	55.74
333.15 K	933.5	45.71
338.15 K	930.2	37.91
343.15 K	926.8	31.74
348.15 K	923.5	26.82
353.15 K	920.1	22.85
358.15 K	916.7	19.62
363.15 K	913.4	16.94

CCCCCCCCCCCCCC[P+](CCCCCC)(CCCCCC)CCCCCC.O=S(=O)([N-]S(=O)(=O)C(F)(F)F)C(F)(F)F + O
x2 = 0.088
Conditions	mass density [kg/m3]	viscosity [mPa·s]
298.15 K	1066.1	300.01
303.15 K	1062.4	224.6
308.15 K	1058.7	170.8
313.15 K	1055	132.06
318.15 K	1051.4	103.5
323.15 K	1047.7	82.08
328.15 K	1044	65.75
333.15 K	1040.4	53.41
338.15 K	1036.7	44.23
343.15 K	1033.1	37.14
348.15 K	1029.6	31.46
353.15 K	1026	26.9
358.15 K	1022.4	23.17
363.15 K	1018.8	20.09

CCCCCCCCCCCCCC[P+](CCCCCC)(CCCCCC)CCCCCC.N#C[N-]C#N [tetradecyl(trihexyl)phosphonium dicyanamide] + O
x2 = 0.496
Conditions	mass density [kg/m3]	viscosity [mPa·s]
298.15 K	900.7	190.83
303.15 K	897.6	145.77
308.15 K	894.7	113.3
313.15 K	891.7	89.4
318.15 K	888.7	71.54
323.15 K	885.7	57.96
328.15 K	882.7	47.54
333.15 K	879.8	39.43
338.15 K	876.8	33.03
343.15 K	873.8	27.94
348.15 K	870.9	23.84
353.15 K	867.9	20.52
358.15 K	865	17.78
363.15 K	862	15.51
